Reference: BindingDB's records for PubMed 33309162 (Universita Degli Studi di Palermo, 2021)

Target: PI3K catalytic subunit alpha (PIK3CA), rat
Assay: Inhibition of PI3Kalpha in rat Rat1 cells reduction in phosphorylation of AKT at Ser473 residue incubated for 2 hrs by alpha screen assay

Row | SMILES | IC50
1 | Cn1nccc1-n1c([C@@H]2CSCN2c2ncnc(N)c2C#N)nc2cccc(Cl)c2c1=O | > 10 µM
2 | CN1CCN(C)/C(=N/c2ccc([N+](=O)[O-])cc2C(=O)Nc2ccccc2)C1 | > 10 µM
3 | N#Cc1c(N)ncnc1N1CSC[C@H]1c1nc2cccc(Cl)c2c(=O)n1-c1cccs1 | > 10 µM
